The test system of assay [1] is MCT-induced PH. The assay can be described thus: Histological evaluation of lung tissue damage (sum-score) in mouse model of MCT-induced PH. The class given is in vivo, C57BL/6 mice. The conditions noted are these: MAC p=0.020; F8 IgG p=0.005; KSF IgG p=0.907. From the text: PH was induced in C57BL/6 mice (bodyweight: 25-30 g). The animals were obtained from ZET facility (Zentale Experimentelle Tierhaltung) of the University Hospital Jena (UKJ, Jena, Germany). Prior to PH induction, mice were allowed to acclimatize for at least 7 days with ad libitum access to food and water as well as controlled light/dark cycles. 41 animals were investigated divided into the following five experimental groups: • 1) sham induced controls (n=7) • 2) MCT induced PH (n=12) • 3) MCT induced PH+MAC (n=6) • 4) MCT induced PH+F8 IgG (n=8) • 5) MCT induced PH+KSF IgG (n=8) For PH induction, the Monocrotaline (MCT, Carl Roth, Germany) method was used. The sham induced controls were injected with 30 μl NaCl not containing MCT at day 1 (single dose; intraperitoneally, i.p.). […] The other 4 experimental groups were injected with MCT to induce PH (single dose; intraperitoneally, i.p.; 60 mg/kg body weight; volume 30 μl). Animals in the MCT induced PH+MAC group received the drug (Macitentan, Actelion Pharmaceuticals Ltd.) from day 14 to day 28 (once daily; per os; 15 mg/kg body weight). Animals in the MCT induced PH+F8 IgG group received F8 IgG 3 times on day 14, 16 and 18 (intravenously, i.v.; 195 μg/injection; volume 200 μl). Similarly, animals in the MCT induced PH+KSF IgG group received KSF IgG 3 times on day 14, 16 and 18 (intravenously, i.v.; 195 μg/injection; volume 120 μl). Microscopic evaluation to assess histopathological lung tissue damage was performed using H&E as well as Sirius Red stained lung tissue sections according to a defined sum-score (between 0 and 12; maximum score value=highest level of tissue damage) integrating certain histological alterations frequently occurring in PH: percentage of atelectasis area, percentage of emphysema area, degree of media hypertrophy of peribronchial arteries, presence of perivascular cellular edema of peribronchial arteries, and degree of media hypertrophy of small arteries. Statistical analyses were performed using IBM SPSS statistical software, version 28.0 (IBM SPSS Statistics for Windows. Armonk, NY, USA). Data are expressed as mean±standard deviation. Kruskal-Wallis and Mann-Whitney-U test were used to test for significant differences between the different groups. A p-value<0.05 as statistically significant.

For assay [2], the system named is MCT-induced PH. The assay can be described thus: Right heart catheterization (RVPsys) in mouse model of MCT-induced PH. The class given is in vivo, C57BL/6 mice. Particulars: day 28; F8 IgG 195 μg i.v. day 14, 16, 18 (p=0.010); MAC 15 mg/kg per os once daily day 14-28 (n.s.). From the text: PH was induced in C57BL/6 mice (bodyweight: 25-30 g). The animals were obtained from ZET facility (Zentale Experimentelle Tierhaltung) of the University Hospital Jena (UKJ, Jena, Germany). Prior to PH induction, mice were allowed to acclimatize for at least 7 days with ad libitum access to food and water as well as controlled light/dark cycles. 41 animals were investigated divided into the following five experimental groups: • 1) sham induced controls (n=7) • 2) MCT induced PH (n=12) • 3) MCT induced PH+MAC (n=6) • 4) MCT induced PH+F8 IgG (n=8) • 5) MCT induced PH+KSF IgG (n=8)
For PH induction, the Monocrotaline (MCT, Carl Roth, Germany) method was used.
The sham induced controls were injected with 30 μl NaCl not containing MCT at day 1 (single dose; intraperitoneally, i.p.). […] The other 4 experimental groups were injected with MCT to induce PH (single dose; intraperitoneally, i.p.; 60 mg/kg body weight; volume 30 μl). Animals in the MCT induced PH+MAC group received the drug (Macitentan, Actelion Pharmaceuticals Ltd.) from day 14 to day 28 (once daily; per os; 15 mg/kg body weight). Animals in the MCT induced PH+F8 IgG group received F8 IgG 3 times on day 14, 16 and 18 (intravenously, i.v.; 195 μg/injection; volume 200 μl). Similarly, animals in the MCT induced PH+KSF IgG group received KSF IgG 3 times on day 14, 16 and 18 (intravenously, i.v.; 195 μg/injection; volume 120 μl).
On day 28 after MCT injection, mice of all experimental groups were deeply anesthetized with a single dose of 100 mg/kg body weight ketamine and 10 mg/kg body weight Xylazin in approximately 60 μl each administered i.p.
Right heart catheterization using a 1.4 F micro conductance pressure-volume catheter (Model SPR-839; Millar Instruments Inc; PowerLab system, ADInstruments Ltd., Oxford, UK) was performed via the right vena jugularis interna to measure the systolic right ventricular pressure and thereby verify the success of the experimental setting. Mice were then sacrificed in deep anesthesia and analgesia to carry out cardiac blood collection after thoracotomy and to harvest the organs.
Statistical analyses were performed using IBM SPSS statistical software, version 28.0 (IBM SPSS Statistics for Windows. Armonk, NY, USA). Data are expressed as mean±standard deviation. Kruskal-Wallis and Mann-Whitney-U test were used to test for significant differences between the different groups. A p-value<0.05 as statistically significant.

As for “KSF IgG: Negative control chimaeric antibody specific for hen egg lysozyme, an irrelevant antigen; heavy chain SEQ ID NO: 15, light chain SEQ ID NO: 16 [reference compound]”, the “histopathological lung tissue damage (sum-score 0 to 12) compared to the MCT-induced PH group without treatment” value with MCT-induced PH [1] was “No reduction”. As for `CCCNS(=O)(=O)Nc1ncnc(OCCOc2ncc(Br)cn2)c1-c1ccc(Br)cc1` [MAC, Macitentan, reference compound], the “attenuation in RVPsys compared to the MCT-induced PH group without treatment (positive control)” value in the assay on MCT-induced PH [2] was “not significant”. In addition, the “histopathological lung tissue damage (sum-score 0 to 12) compared to the MCT-induced PH group without treatment” value with MCT-induced PH [1] is given as “significantly reduced”.

These data come from patent US20250197485A1, “Anti-ED-A Antibodies for the Treatment of Pulmonary Hypertension” (Universitätsklinikum Jena, priority 2022, published 2025).
